Data on 86 compounds can be found in a melting point compilation (Tetko et al.; mined from patent text by program, amines drawn as free bases though some values may be those of a salt).

Some results are limits rather than exact numbers.

By melting point is commonly meant the temperature of the solid-liquid transition. Take `Cc1cc(-c2c(-c3ccc(S(C)(=O)=O)cc3)cnn(CC(F)(F)F)c2=O)ccc1F`: the melting point was 88 to 91 °C. `CCOC(=O)c1ccc([N+](=O)[O-])cc1F` gave a melting point of 70 to 73 °C. `CC1(C)CCC(C)(C)c2cc(-c3cc4ccc(C(=O)O)cc4o3)ccc21` showed a melting point of 280 °C. Then `CC(=O)OC1CCC2(C)C(=CCC3C4CC(OC(C)=O)C(=O)C4(C)CCC32)C1` (stereo unspecified), with 173 to 174 °C. `COc1cc(C(C)C)c2c(c1)S(=O)(=O)N(COc1cc(C(F)(F)F)nn1Cc1ccccc1)C2=O` registered a melting point of 116 to 118 °C.

`CC(=O)c1ccc(OCCCCCCOc2ccccc2)o1` came in with a melting point of 80 °C.

`COc1cc2c(cc1O)CCN(C(=O)c1ccccc1OC)C2` came in with a melting point of 176 to 177 °C. Take `CS(=O)(=O)c1ccc(N)c(C#N)c1`: the melting point lay in the range of 155 to 157 °C. Take `Cc1cc(C)c2nc3n(c(=O)c2c1)-c1ccc(F)cc1C3=O`: the melting point was in the range of 275 to 277 °C. Consider `CC1(C)CCCC(C)(C)N1Cc1ccc2cc(NC(=O)c3ccc(-c4ccc(Cl)cc4)cc3)ccc2c1`, for which the melting point lay in the range of 244 to 246 °C. For the compound `COC(=O)C1=C(C)NC(C)=C(C)C1c1ccccc1` (stereo unspecified), the melting point was determined as 120 °C.

For `CCCCC1=NC2(CCCC2)C(=O)N1Cc1ccc(-c2ccccc2S(=O)(=O)Nc2onc(C)c2C)c(CN2CCCC2=O)c1`, the melting point is 95 to 100 °C. Regarding `COc1cc2c(cc1-c1cccnc1)-c1c(-c3cccs3)c3c(n1CC2)C(=O)N(C(C)C)CCN(C(=O)C(C)C)C3`, the melting point lay within 178 to 183 °C. In turn, `CCOC1=NC(C)(C)NC(N)=N1` displayed a melting point of 175 to 178 °C. `c1ccc2c(c1)CCn1ccnc1C2=C1CCNCC1` displayed a melting point of 287 to 289 °C. Take `Cn1c(CNCC(C)(C)O)cc2cc(NC(=O)c3ccc(OC[C@@H]4CCCO4)cc3F)ccc21`: the melting point is 159 to 160 °C. Turning to `CN(Cc1cccc(-c2ccc(O)cc2)c1)C(=O)OC(C)(C)C`, the melting point is 174 °C. For `CCC1CCc2c(sc3cc(N)ccc3c2=O)C1` (stereo unspecified) the value was 187 °C; for `O=C(O)c1ccc(S(=O)(=O)C(Br)(Br)Br)cc1`, greater than 305 °C. On to `C#CCn1c(=O)sc2cc(F)c(-n3c(OC)nc(C(F)(F)F)cc3=O)cc21`, for which the melting point is 191 to 192 °C. Compound `CNC(=O)N1CC(Oc2ccccn2)C1` registered a melting point of 165 to 168 °C. Compound `Cc1nc2ccc(CCc3ccccc3)cn2c1CC#N` came in with a melting point of 139 to 141 °C. The compound `Cn1ncc2c1-c1c(Sc3ccccn3)sc(C(=O)O)c1CC2` registered a melting point of 231 to 232 °C.

Take `Clc1cc(Nc2nccc(-c3ccc(N4CCNCC4)nc3)n2)cc(Cl)c1Cl`: the melting point was in the range of 208 to 211 °C.

`COc1ccc(N2CCN(Cc3nn(C(C)=O)c4cc(F)ccc34)CC2)cc1`: the melting point is 94 to 95 °C. As for `CCOc1ccc(CC(=O)O)cc1OCCCc1cn(-c2ccc(C(F)(F)F)cn2)nc1C1CCCCC1`, the melting point was in the range of 134 to 135 °C. Then `O=C(c1ccccc1)c1cc(Cc2ccccc2)c(O)c2ccccc12`, with 152 to 155 °C.

`CCOC(=O)c1cc2cc(OCCOC)cc([N+](=O)[O-])c2[nH]1` gave a melting point of 90 to 91 °C. For `O=C(O)Cc1c[nH]c2cc(C3CC3)nn2c1=O` the value was greater than 300 °C; for `c1cnc2c(c1)-c1sccc1C2Cc1ccncc1` (stereo unspecified), 178 to 181 °C.

Compound `COC(=O)c1ccc(C=CC(=O)N2CCc3c([nH]c4ccccc34)C2c2ccc3c(c2)CCO3)cc1` (stereo unspecified) had a melting point of 186 °C. `COc1ccc(C2=NN(CCCCN3C(=O)c4ccccc4C3=O)C(=O)[C@H]3CC=CC[C@@H]23)cc1OC` (relative stereo): the melting point fell in the range of 139 to 140 °C.

Compound `CN1CC[C@@H]2CC(=O)c3c(F)cc(F)cc3[C@@H]2C1` (relative stereo) registered a melting point greater than 220 °C. For `Cc1cccc2[nH]c3cc(O)ccc3c12` the value was 191 °C; for `CCOCc1c(-c2ccccc2)oc2c(C(=O)NCCCN3CCN(c4ccccc4OC)CC3)cccc2c1=O`, 129 to 133 °C; for `O=C(O)c1cc(OCc2ccc(Cl)cc2)c(C(=O)c2ccccc2)c([N+](=O)[O-])c1`, 253 to 254 °C. Regarding `C[C@H](NC(=O)OCc1ccccc1)C(=O)N1CCC[C@H]1C(=O)NC1CCCCCCC1`, the melting point lay within 94 to 96 °C. Compound `CSC[C@H]1C[C@H](C(=O)O)CS1` (relative stereo) came in with a melting point of 74.8 to 76 °C. In turn, `OC1c2cc(OCc3ccc4cc(F)ccc4n3)ccc2OCC1Cc1cncnc1` (stereo unspecified) gave a melting point of 188 to 191 °C.

In the case of `CC(C)c1ccc(N(C)C(=O)Cn2cnc3c2c(=O)n(C)c(=O)n3C)cc1`, the melting point lay in the range of 231 to 233 °C. Take `COC(=O)c1cc2c(O)c(C(=O)NCc3ccc(Cl)cc3)cnc2s1`: the melting point lay within 238 to 240 °C. `Oc1c2c(nn1-c1ccccn1)CCc1cc(Br)ccc1-2` gave a melting point of 164 to 165 °C.

For the compound `CCOC(=O)c1c(NC=CC(=O)C(C)C)sc(-c2ccccc2)c1C`, the melting point is 104 to 108 °C. `CN(C)c1ccc(C=NC2CCCCC2N=Cc2ccc(O)cc2O)c(O)c1` (stereo unspecified) came in with a melting point of 202 °C. `Cc1nc(-c2cn(Cc3ccccc3)nn2)sc1C(=O)NCc1cccnc1` returned a melting point of 212 to 213 °C. `O=P(O)(O)C(O)(CCC1CCCCN1)P(=O)(O)O` (stereo unspecified) registered a melting point of 193 to 195 °C.

The compound `Cc1ncc(CN2CCN(CCc3ccccc3)CC2)c(N)n1` yielded a melting point of 162 to 165 °C. In turn, `CC(=O)c1ccc(-n2c(-c3cc(-c4ccccc4)c(N4CCOCC4)s3)nc3ccccc3c2=O)cc1` registered a melting point greater than 275 °C. For `COC(=O)C12C3C4(C(=O)OC)C1C1(C(=O)OC)C2C3(C(=O)OC)C41Cl` (stereo unspecified) the value was 178 to 180 °C. In turn, `CSC1(Cl)C(=O)Nc2ccc(C(F)(F)F)cc21` (stereo unspecified) displayed a melting point of 191 to 193 °C. On to `C=CCn1c(=O)c2cc(C(=O)OCC)cn2c2ccccc21`, for which the melting point was 177 to 178 °C. Turning to `CC(C)(OCc1cc2nc(Cl)ccc2n1S(=O)(=O)c1cccc(Cl)c1Cl)C(=O)O`, the melting point amounted to 174 °C. For `CCNc1c(C(F)(F)F)cc([N+](=O)[O-])c(NN(C)C)c1[N+](=O)[O-]` the value was 108 to 116 °C; for `COc1c(C)cc([N+](=O)[O-])c(NC(C)C)c1[N+](=O)[O-]`, 77.5 to 79 °C; for `N#CCc1nc2c(s1)Cc1cc(Cl)ccc1-2`, 134 °C. For the compound `CC(N)(C=CCP(=O)(O)O)C(=O)O` (stereo unspecified), the melting point lay in the range of 225 to 226 °C.

On to `CCCc1c(C(=O)NCc2ccc(-c3ccc(OCC(=O)O)c(Br)c3)cc2)cnn1-c1ccccc1`, for which the melting point is 204 to 206 °C. Regarding `CCCCCC(=O)c1ccc(O)c(C(=O)O)c1`, the melting point fell in the range of 48 to 49 °C.

In the case of `NSc1nccnc1Cl`, the melting point was 113 to 114 °C. Then `COC(=O)C1=C(C)Nc2nccn2C1c1cccc(N)c1` (stereo unspecified), with 224 to 225 °C. `CCOC(=O)C1CN(C(=O)c2cc(OC)c(OC)c(OC)c2)CCN1` (stereo unspecified) displayed a melting point of 114 to 115 °C. `CS(=O)(=O)Nc1cc2c(cc1Oc1ccccc1)C(=O)C(Br)CO2` (stereo unspecified) registered a melting point of 137 to 140 °C. `C=CCC(=O)Nc1n[nH]c2cc(Cl)ccc12`: the melting point was determined as 150 °C. On to `O=C1OC(COc2ccccc2)CN1CCCOc1ccc(CC2SC(=O)N(C(c3ccccc3)(c3ccccc3)c3ccccc3)C2=O)cc1` (stereo unspecified), for which the melting point fell in the range of 70 to 73 °C. For `COc1cc(C2CC(=O)OC(=O)C2)cc2c(C)c(C)oc12` the value was 194 to 195 °C; for `O=C1CCC(N2Cc3cc(CNC(=O)c4cccc(Cl)c4)ccc3C2=O)C(=O)N1` (stereo unspecified), 293 to 295 °C; for `Cn1nc(-c2ccc(F)cc2)c(-c2ccc(S(C)(=O)=O)cc2)cc1=O`, 181 to 182 °C.

In turn, `Cc1nc2ccc(N3CCN(CCCC(=O)c4ccc(F)cc4)CC3)nc2nc1C` displayed a melting point of 155 to 156 °C.

`CCCCCCCCOc1ccc(-c2ncc(OC(=O)[C@@H](Cl)[C@@H](C)CC)cn2)c(F)c1F` showed a melting point of 66.2 °C. `COc1cccc(Oc2c(NS(=O)(=O)c3ccc(C(C)(C)C)cc3)ncnc2OCCOc2ncc(C(C)O)cn2)c1` (stereo unspecified) returned a melting point of 133 to 135 °C. Take `O=C(OCc1ccccc1)C(C(=O)N1CC2C(=O)CCC(c3ccccc3)(c3ccccc3)C2C1)c1ccccc1` (racemic): the melting point stood at 210 °C.

As to `CCOC(=O)CSc1cc(C)nc(N)n1`, the melting point fell in the range of 65 to 69 °C. For `O=C1CCC(N2C(=O)c3cccc(NC(=O)c4cccc([N+](=O)[O-])c4)c3C2=O)C(=O)N1` (stereo unspecified) the value was 245 to 247 °C; for `CCCCCOc1cc(C(=O)O)cc(S(N)(=O)=O)c1-c1ccccc1`, 152 to 155 °C.

`O=c1[nH]c(=O)n(C2CC2)c2nc(S(=O)(O)=S)c(F)cc12` had a melting point of 300 to 302 °C. As to `O=C(Nc1cnc(-c2ccccc2)nc1C(=O)O)OCc1cc2cc(-c3ccccc3)ccc2o1`, the melting point was 184 to 185 °C. On to `CCOC(Cl)(Cl)C1OC(=C(Cl)Cl)c2cc(C(=O)O)ccc2O1` (stereo unspecified), for which the melting point lay in the range of 121 to 122 °C. The compound `CC1OC(=O)Nc2ccc(-c3cccc(F)c3)cc21` (stereo unspecified) yielded a melting point of 160 to 161 °C.

On to `CC(=O)Nc1cc2c(c(C)c1C)OC(C)(C)C2`, for which the melting point is 163 to 164 °C. Turning to `Cc1ccc2cccc(N3CCNCC3)c2n1`, the melting point fell in the range of 163 to 164 °C.

Turning to `COC(=O)c1ccc(C(O)c2cc3cc(C(F)(F)F)ccc3n2S(=O)(=O)c2ccc(C(C)C)cc2)cc1` (stereo unspecified), the melting point was 68 °C. Then `COc1ccc(-c2c(NCC(C)c3ccccc3)c(=O)c2=O)cc1` (stereo unspecified), with 215 to 216 °C; and `Oc1ccc2nc(SCCC(F)C(F)(F)Br)oc2c1` (stereo unspecified), with 64.6 to 67.6 °C. Consider `CCn1ccc(Nc2cc(-c3cccc(N4Cc5cc(C(C)(C)C)ccc5C4=O)c3CO)cn(C)c2=O)n1`, for which the melting point is 175 to 177 °C.

`NC(=O)N1C(=O)C(C(=O)c2cccs2)c2cc(F)c(Cl)cc21` (stereo unspecified) had a melting point of 220 to 221 °C. Take `Nc1ccc2nc(-c3ccccc3)cc(OCC(=O)N3CCOCC3)c2c1`: the melting point was 194 °C.
